Test results reported in patent US10426850B2, “Collagen mimetic peptides for targeting collagen strands for in vitro and in vivo imaging and therapeutic use” (The Johns Hopkins University, priority 2011, dated 2019).

Assays:
[1] = CD refolding kinetics / triple helix folding rate of CMPs; type: physicochemical; conditions: after UV exposure; thermal quenching from 80° C. to 25° C.
Procedure: Circular dichroism spectroscopy. CD spectra were collected on JASCO 715 spectrophotometer equipped with a JASCO PTC-348 WI temperature controller and quartz cells (0.1 mm path length). CMP solutions (320 μL, 150 μM in 1×PBS) were stored at 4° C. for at least 24 hours before measurement. For photo-decaging, samples were exposed to 365 nm UV light for at least 30 minutes before the 4° C. incubation. The thermal melting studies were performed by measuring the ellipticity at 225 nm with 60° C./hr heating rate. Raw CD signal was normalized to mean residue ellipticity based on the peptide's length and concentration (Biopolymers 95:94-104 (2011)). Melting temperatures (Tm) were determined by fitting the mean residue ellipticity to a two-state model (Org Lett 8:4735-4738 (2006)). […] The CD spectra of intact and MMP-1 cleaved type I collagen (FIG. 12) was measured in 90 μg/mL protein solutions in 20 mM acetic acid buffer at 22° C. The 37° C. thermal stability profile (FIG. 2E, inset) was generated by monitoring the ellipticity at 222 nm immediately after transferring the cuvette to a temperature controlled cuvette holder pre-set to 37° C. The Tm values reported in this study are approximately 10° C. higher than the equilibrium Tm due to high heating rate (60° C./hr) (Biopolymers 73:682-688 (2004)).

[2] = biological target: T1, thermally-denatured collagen (gelatin) films (Rattus norvegicus, UniProt P02454+P02466); experiment: Photo-triggered CMP binding assay on gelatin films
T1 construct: To make gelatin films, the same collagen solution was denatured at 70° C. for 15 minutes; purchased BD Science; host or cells: rat tail
Procedure: Collagen/gelatin binding assays. Collagen solution (200 μL, 3.71 mg/mL, type I rat tail, BD Science) in 0.02 N acetic acid was added to each well of a 96-well black/clear-bottom plate (Costar) and air-dried. To make gelatin films, the same collagen solution was denatured at 70° C. for 15 minutes before applying to the well. The dried films were neutralized and washed with 1×PBS buffer (pH 7.4) and deionized water. PBS solution of carboxyfluorescein-labeled caged CMP (40 μL, 50 μM, unless indicated otherwise) pre-equilibrated at 4° C. was added onto each reconstituted collagen or gelatin film and exposed to 365 nm UV light (10 mW/cm^2, from mercury arc lamp) for 11 minutes on ice. Wells for the UV-negative control groups were covered with aluminum foil to block UV exposure. After incubation at 4° C. for over 3 hours (unless indicated otherwise), the unbound materials were removed by rinsing with PBS buffer and deionized water. The films were allowed to dry in dark, after which the fluorescence (ex: 489 nm, em: 533 nm) was measured with a SpectraMax Gemini XPS microplate reader (Molecular Devices). Each binding experiment was done in triplicate.

[3] = biological target: T2, MMP-1 cleaved type I collagen (Rattus norvegicus, UniProt P02454+P02466); experiment: Photo-triggered CMP binding assay on MMP-1 digested collagen; conditions: MMP-1 digested collagens after the 37° C. incubation; UV-activated
T2 construct: purchased BD Science (collagen); EMD Millipore (ProMMP-1); host or cells: rat tail; digested in house
Procedure: MMP-1 digestion of type I collagen and CMP binding assays. ProMMP-1 (1 μg, EMD Millipore) was activated by p-aminophenylmercuric acetate (1.1 mM) in 132.5 μL of TNC buffer (50 mM Tris-HCl, 0.15 M NaCl, 5 mM CaCl2, 0.02% NaN3, pH 7.5) at 37° C. for 3 hr. Type I collagen (62.6 μg) was subsequently added to the MMP-1 solution and incubated at room temperature for at least 3 days. Digested products were analyzed by SDS-PAGE and circular dichroism spectroscopy (FIG. 12). Wells of nunc black 96-well maxisorp plate were charged with 50 μL of TNC buffer containing 0.5 M glycerol, and 100 μg/mL collagen or MMP-1 cleaved collagen, and incubated at room temperature. The collagen solutions used were either kept at room temperature (22° C.) or incubated at 37° C. for 1 minute just prior to coating. […] Wells were washed extensively with PBSB followed by fluorescence (ex: 489 nm, em: 533 nm) reading with a SpectraMax M-2 microplate reader (Molecular Devices). […] The background fluorescence of empty wells was subtracted from the raw fluorescence data. For estimating the amount of adsorbed protein, un-blocked collagen-coated wells were treated with 100 μM 5-(4,6-dichlorotriazinyl)aminofluorescein (DTAF, 50 μL, in 0.1 M sodium borate buffer) at room temperature for 3 hours, and the fluorescence (ex: 489 nm, em: 533 nm) of the well was measured after washing with 1×PBS. […]

T1 sequence (P02454 152-1207 limits assumed): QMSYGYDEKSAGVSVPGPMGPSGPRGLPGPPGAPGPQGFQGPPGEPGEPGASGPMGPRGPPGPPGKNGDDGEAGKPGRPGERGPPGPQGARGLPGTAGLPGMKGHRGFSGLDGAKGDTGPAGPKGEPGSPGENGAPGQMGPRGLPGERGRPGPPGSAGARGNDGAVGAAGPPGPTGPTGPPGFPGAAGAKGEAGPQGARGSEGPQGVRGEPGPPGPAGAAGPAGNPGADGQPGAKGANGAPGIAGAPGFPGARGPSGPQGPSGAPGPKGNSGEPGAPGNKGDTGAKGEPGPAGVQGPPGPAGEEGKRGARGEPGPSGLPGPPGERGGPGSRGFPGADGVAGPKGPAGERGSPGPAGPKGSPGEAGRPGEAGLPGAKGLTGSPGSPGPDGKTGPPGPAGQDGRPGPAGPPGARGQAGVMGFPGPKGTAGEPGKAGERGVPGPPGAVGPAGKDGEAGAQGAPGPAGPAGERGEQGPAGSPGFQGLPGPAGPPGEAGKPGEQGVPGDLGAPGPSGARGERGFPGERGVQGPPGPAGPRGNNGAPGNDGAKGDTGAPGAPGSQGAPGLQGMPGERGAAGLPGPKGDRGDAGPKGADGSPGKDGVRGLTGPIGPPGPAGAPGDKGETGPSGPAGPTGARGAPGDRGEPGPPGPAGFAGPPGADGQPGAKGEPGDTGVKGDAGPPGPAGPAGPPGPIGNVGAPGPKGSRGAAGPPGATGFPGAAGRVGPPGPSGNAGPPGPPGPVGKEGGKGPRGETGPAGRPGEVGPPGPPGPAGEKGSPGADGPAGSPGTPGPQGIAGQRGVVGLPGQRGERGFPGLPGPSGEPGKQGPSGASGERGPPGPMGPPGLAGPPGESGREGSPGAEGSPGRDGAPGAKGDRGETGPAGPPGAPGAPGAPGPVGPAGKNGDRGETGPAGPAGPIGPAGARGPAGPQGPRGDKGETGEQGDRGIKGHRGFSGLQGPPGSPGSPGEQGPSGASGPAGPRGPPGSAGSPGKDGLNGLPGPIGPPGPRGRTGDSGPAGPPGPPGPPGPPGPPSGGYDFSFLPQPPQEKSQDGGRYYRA
T1 sequence (P02466 86-1125 limits assumed): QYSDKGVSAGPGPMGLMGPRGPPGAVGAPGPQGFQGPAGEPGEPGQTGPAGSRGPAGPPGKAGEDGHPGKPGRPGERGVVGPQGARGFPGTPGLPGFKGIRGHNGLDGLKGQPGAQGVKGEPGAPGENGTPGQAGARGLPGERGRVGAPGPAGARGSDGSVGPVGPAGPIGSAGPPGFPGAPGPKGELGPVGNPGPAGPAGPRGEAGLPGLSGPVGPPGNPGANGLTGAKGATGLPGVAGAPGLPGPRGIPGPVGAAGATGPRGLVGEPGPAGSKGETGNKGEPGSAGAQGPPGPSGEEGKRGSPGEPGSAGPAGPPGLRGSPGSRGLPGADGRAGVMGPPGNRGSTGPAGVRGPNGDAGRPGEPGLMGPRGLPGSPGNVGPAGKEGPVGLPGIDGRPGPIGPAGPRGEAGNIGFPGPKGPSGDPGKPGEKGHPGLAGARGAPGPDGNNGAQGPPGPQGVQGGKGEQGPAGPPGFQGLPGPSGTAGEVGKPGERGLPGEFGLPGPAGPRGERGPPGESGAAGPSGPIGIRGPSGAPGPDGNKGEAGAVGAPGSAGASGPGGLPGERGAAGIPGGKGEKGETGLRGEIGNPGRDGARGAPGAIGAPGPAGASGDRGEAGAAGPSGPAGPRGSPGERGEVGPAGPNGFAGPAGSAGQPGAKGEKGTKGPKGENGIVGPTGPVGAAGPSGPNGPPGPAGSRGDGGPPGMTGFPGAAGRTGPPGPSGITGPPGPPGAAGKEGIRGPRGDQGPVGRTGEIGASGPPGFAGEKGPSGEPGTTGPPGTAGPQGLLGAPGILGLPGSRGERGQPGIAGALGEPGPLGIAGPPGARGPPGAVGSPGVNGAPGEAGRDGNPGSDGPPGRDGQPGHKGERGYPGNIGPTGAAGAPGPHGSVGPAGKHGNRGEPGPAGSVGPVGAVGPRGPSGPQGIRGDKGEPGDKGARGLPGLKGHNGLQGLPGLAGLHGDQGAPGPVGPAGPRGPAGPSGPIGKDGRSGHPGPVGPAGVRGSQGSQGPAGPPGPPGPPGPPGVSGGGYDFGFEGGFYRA
T2 sequence (P02454 152-942 limits assumed): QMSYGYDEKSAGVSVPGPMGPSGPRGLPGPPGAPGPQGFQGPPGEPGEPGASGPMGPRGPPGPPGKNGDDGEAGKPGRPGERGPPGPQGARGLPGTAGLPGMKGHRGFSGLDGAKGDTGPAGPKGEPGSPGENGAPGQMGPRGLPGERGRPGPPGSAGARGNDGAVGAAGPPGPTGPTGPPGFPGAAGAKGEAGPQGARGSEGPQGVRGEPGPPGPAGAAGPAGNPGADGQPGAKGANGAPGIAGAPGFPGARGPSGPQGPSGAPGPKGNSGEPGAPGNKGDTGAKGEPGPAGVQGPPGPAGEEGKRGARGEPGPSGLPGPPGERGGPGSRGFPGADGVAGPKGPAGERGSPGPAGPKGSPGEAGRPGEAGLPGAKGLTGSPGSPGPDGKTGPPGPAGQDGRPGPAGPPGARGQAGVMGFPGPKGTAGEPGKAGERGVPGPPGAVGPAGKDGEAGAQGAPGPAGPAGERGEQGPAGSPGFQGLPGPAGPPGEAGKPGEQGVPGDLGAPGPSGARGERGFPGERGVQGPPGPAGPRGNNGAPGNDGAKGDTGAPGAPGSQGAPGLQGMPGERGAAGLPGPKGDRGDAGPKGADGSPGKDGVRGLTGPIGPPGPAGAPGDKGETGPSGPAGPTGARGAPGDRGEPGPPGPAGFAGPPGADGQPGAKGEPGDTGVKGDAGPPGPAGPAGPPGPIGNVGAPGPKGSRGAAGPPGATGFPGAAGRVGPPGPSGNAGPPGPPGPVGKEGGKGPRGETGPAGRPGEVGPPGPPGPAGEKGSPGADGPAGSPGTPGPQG
T2 sequence (P02454 943-1207 limits assumed): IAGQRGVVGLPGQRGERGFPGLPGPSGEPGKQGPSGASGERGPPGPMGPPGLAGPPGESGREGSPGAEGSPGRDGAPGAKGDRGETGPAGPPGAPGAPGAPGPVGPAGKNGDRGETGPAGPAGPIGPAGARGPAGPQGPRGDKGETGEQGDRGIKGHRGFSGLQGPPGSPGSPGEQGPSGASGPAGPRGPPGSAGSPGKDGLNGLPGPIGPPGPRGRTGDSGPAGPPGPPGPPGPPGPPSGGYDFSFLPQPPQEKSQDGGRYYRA
T2 sequence (P02466 86-871 limits assumed): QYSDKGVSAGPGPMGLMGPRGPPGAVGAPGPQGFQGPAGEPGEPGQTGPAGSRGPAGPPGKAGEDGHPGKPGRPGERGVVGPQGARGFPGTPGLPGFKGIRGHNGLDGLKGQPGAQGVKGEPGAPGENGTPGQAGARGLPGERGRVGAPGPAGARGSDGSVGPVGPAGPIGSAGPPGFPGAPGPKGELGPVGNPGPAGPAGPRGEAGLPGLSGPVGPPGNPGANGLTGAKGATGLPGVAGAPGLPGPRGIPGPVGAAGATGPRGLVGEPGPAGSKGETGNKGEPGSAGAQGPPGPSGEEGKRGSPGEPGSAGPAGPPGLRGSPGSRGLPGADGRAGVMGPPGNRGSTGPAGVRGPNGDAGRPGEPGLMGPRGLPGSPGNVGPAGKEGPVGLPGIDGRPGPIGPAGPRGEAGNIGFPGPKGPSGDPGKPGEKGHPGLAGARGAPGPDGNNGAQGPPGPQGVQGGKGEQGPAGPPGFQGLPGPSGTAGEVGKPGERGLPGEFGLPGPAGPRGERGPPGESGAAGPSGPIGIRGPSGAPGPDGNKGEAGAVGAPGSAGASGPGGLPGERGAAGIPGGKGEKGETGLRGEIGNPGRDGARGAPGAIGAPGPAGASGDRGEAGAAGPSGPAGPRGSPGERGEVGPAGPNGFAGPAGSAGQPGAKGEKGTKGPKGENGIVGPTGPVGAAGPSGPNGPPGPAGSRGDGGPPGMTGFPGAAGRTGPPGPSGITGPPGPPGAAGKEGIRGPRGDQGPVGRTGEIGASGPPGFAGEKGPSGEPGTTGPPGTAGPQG
T2 sequence (P02466 872-1125 limits assumed): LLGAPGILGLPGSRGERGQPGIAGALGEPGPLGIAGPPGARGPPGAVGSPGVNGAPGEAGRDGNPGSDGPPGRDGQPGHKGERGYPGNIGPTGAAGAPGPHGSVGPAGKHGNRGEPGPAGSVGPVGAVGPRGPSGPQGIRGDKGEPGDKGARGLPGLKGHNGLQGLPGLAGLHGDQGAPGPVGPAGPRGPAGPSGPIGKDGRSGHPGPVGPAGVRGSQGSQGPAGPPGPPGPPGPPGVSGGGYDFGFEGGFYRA

refolding kinetics (CD 225 nm) [1]: fast refolding kinetics
binding (fluorescence intensity of film) ([2]; caged, UV−): negligible
level of binding on gelatin relative to collagen ([2]; photo-activated (UV+)): an order of magnitude higher
level of CMP binding, fold higher compared to all other collagens tested [3]: 4-10 fold
Substance: CF-GGG-(GPO)4^NBGPO(GPO)4 [CF^NB(GPO)9]
